Results reported in US12037415B2, “Peptide and pharmaceutical composition for treating an eye disease comprising the same as an active pharmaceutical ingredient” (YuYu Pharma, Inc., priority 2017, dated 2024).
Non-standard residues stand in square brackets, D forms with d. Residues, ends and D or L forms follow the SMILES beside them. No end group written: not given here. Pro(trans-4-F) = O=C(O)[C@@H]1C[C@@H](F)CN1; Pro(4,4-Me2) = CC1(C)CN[C@H](C(=O)O)C1; Pro(4-oxo) = O=C1CN[C@H](C(=O)O)C1; Hyp = O=C(O)[C@@H]1C[C@@H](O)CN1

Key:
[1] = test system: cornea of rats with dry eye syndrome (ELGE); test: Corneal permeability of fluorescent dye (corneal damage) in rats with ELGE-induced dry eye syndrome; assay type: in vivo, rat; details: 0.3% solution, day 14 after the administration
From the text: In order to evaluate the eye protection effect on dry eye syndrome by YDE-001 to YDE-028 prepared in Working Example 1, a total of 320 Sprague-Dawley-type male rats (OrientBio, Seungnam, Korea) were adapted for 7 days. Thereafter, dry eye syndrome was induced in 264 test rats through extraorbital lacrimal gland excision (hereinafter, ELGE). 8 test rats without the eye abnormality were subjected to a sham operation as a control group.
The rats were systemically anesthetized by inhaling a mixed gas of 2% to 3% of isoflurane (Hana Pharm. Co., Hwasung, Korea), 70% of N2O, and 28.6% of O2 using a rodent anesthesia machine (Surgivet, Waukesha, Wis., USA) and a ventilator (Model 687, Harvard Apparatus, Cambridge, UK). Thereafter, the extraorbital lacrimal gland located in the subdermal area above the masseter muscle and under the optic nerve was excised through a transverse incision in a size of 10 mm on the anterior part of the left ear tragus. The skin was sutured by a general method. […] After 6 days following the ELGE operation, confirmation was performed through the Schirmer test by measuring the amount of tear secretion whether dry eye syndrome had been induced. Meanwhile, each rat of the control group with the sham operation was checked for the presence and location of the extraorbital lacrimal gland through a skin incision, and the skin was then sutured without the excision thereof (FIG. 134).
In addition, in order to evaluate the eye protection effect on dry eye syndrome by YDE-029 to YDE-043 prepared in Working Example 1, a total of 200 Sprague-Dawley-type male rats (OrientBio, Seungnam, Korea) were adapted for 7 days. Dry eye syndrome was induced in 165 test rats through the ELGE. 8 test rats without the eye abnormality were subjected to the sham operation as a control group. The ELGE was carried out as described above.
(§1) For YDE-001 to YDE-028, YY-102 and the 28 YDE-series were each dissolved in physiological saline at a concentration of 3 mg/ml and administered at a dose of 5 μl/eye at 9:30 am and 3:30 pm daily for 14 days after 7 days from the ELGE operation for a total of 28 times. The DS solution was dissolved in physiological saline at a concentration of 30 mg/ml and administered at a dose of 5 μl/eye twice a day for 14 days after 7 days from the ELGE operation for a total of 28 times. For the sham control and the ELGE control groups, the same stimulation as the administration was applied. In order to prevent excessive eye dryness, the same volume of physiological saline was applied in the same manner in place of the test substances.
as §1, with “Further, For YDE-029” for “For YDE-001”, “Further, For YDE-029 to YDE-043,” for “For YDE-001 to YDE-028,”, “YDE-029 to YDE-043, YY-102 and” for “YDE-001 to YDE-028, YY-102 and”, “and the 15 YDE-series were” for “and the 28 YDE-series were”, “the test substances (FIG. 137).” for “the test substances.”
After YDE-001 to YDE-028 were each administered to the eyes […], the changes in the corneal permeability were checked.
In order to measure the corneal permeability, Zolethyl 50™ (Virbac Lab., Carros, France), an animal anesthetic, was intraperitoneally injected at a dose of 25 mg/kg. Thereafter, saline containing a 1% (v/v) fluorescent solution (fluorescein sodium salt, Tokyo Kasei Kogyo Co., Tokyo, Japan) was applied to the eyes at a dose of 5 μl/eye. The eyes thus treated were closed and fixed with a tape. After 1 hour, the remaining fluorescent solution was removed using a cotton swab (FIG. 142). […]

[2] = Stability in aqueous solution, amount of related substances under long-term storage conditions; assay type: physicochemical; details: glass vial, 25° C., 75% RH
Description: In order to confirm the stability of each test substance in an aqueous solution, […] of each sample was dissolved in 1 ml of water to a concentration of 1 mg/ml, which was then charged to a glass vial, plugged with a rubber cap, sealed with an aluminum cap, and stored under long-term storage conditions (25° C., 75% RH). The stability of the test substance was evaluated by measuring the amount of related substances at the time of one week, two weeks, four weeks, eight weeks, and twelve weeks under the long-term storage conditions.

[3] = study of YDE-001 to YDE-028 (Table 16)
[4] = study of YDE-029 to YDE-043 (Table 17)

| Compound | Permeability of fluorescent dye (%) [1, 3] | Amount of related substances (%; after 12 weeks) [2] | Permeability of fluorescent dye (%) [1, 4] |
| --- | --- | --- | --- |
| CC(C)C[C@H](NC(=O)CNC(=O)[C@H](CCC(=O)O)NC(=O)[C@H](CCC(N)=O)NC(=O)CNC(=O)[C@@H]1C[C@@H](O)CN1)C(=O)N[C@@H](C)C(=O)NCC(=O)N1CCC[C@H]1C(=O)N[C@@H](CCCCN)C(=O)O [YDE-001, HyP-Gly-Gln-Glu-Gly-Leu-Ala-Gly-Pro-Lys] (H-[Hyp]GQEGLAGPK-OH) | 25.49 ± 11.62% | 3.92% | – |
| CC(C)C[C@H](NC(=O)CNC(=O)[C@H](CC(N)=O)NC(=O)[C@H](CCC(N)=O)NC(=O)CNC(=O)[C@@H]1C[C@@H](O)CN1)C(=O)N[C@@H](C)C(=O)NCC(=O)N1CCC[C@H]1C(=O)N[C@@H](CCCCN)C(=O)O [YDE-002, HyP-Gly-Gln-Asn-Gly-Leu-Ala-Gly-Pro-Lys] (H-[Hyp]GQNGLAGPK-OH) | 38.26 ± 11.25% | 4.93% | – |
| CC(C)C[C@H](NC(=O)CNC(=O)[C@H](CCC(N)=O)NC(=O)[C@H](CCC(N)=O)NC(=O)CNC(=O)[C@@H]1C[C@@H](O)CN1)C(=O)N[C@@H](C)C(=O)NCC(=O)N1CCC[C@H]1C(=O)N[C@@H](CCCCN)C(=O)O [YDE-003, HyP-Gly-Gln-Gln-Gly-Leu-Ala-Gly-Pro-Lys] (H-[Hyp]GQQGLAGPK-OH) | 40.45 ± 6.46% | 6.86% | – |
| CC(C)C[C@H](NC(=O)CNC(=O)[C@H](Cc1cnc[nH]1)NC(=O)[C@H](CCC(N)=O)NC(=O)CNC(=O)[C@@H]1C[C@@H](O)CN1)C(=O)N[C@@H](C)C(=O)NCC(=O)N1CCC[C@H]1C(=O)N[C@@H](CCCCN)C(=O)O [YDE-004, HyP-Gly-Gln-His-Gly-Leu-Ala-Gly-Pro-Lys] (H-[Hyp]GQHGLAGPK-OH) | 35.05 ± 11.74% | 2.11% | – |
| CC(C)C[C@H](NC(=O)CNC(=O)[C@H](CC(C)C)NC(=O)[C@H](CCC(N)=O)NC(=O)CNC(=O)[C@@H]1C[C@@H](O)CN1)C(=O)N[C@@H](C)C(=O)NCC(=O)N1CCC[C@H]1C(=O)N[C@@H](CCC(=O)O)C(=O)O [YDE-031, HyP-Gly-Gln-Leu-Gly-Leu-Ala-Gly-Pro-Glu] (H-[Hyp]GQLGLAGPE-OH) | – | – | 33.35 ± 11.01% |
| CC(C)C[C@H](NC(=O)CNC(=O)[C@H](CC(C)C)NC(=O)[C@H](CCC(N)=O)NC(=O)CNC(=O)[C@@H]1CC(=O)CN1)C(=O)N[C@@H](C)C(=O)NCC(=O)N1CCC[C@H]1C(=O)N[C@@H](CCCCN)C(=O)O [YDE-035, (4-oxo)Pro-Gly-Gln-Leu-Gly-Leu-Ala-Gly-Pro-Lys] (H-[Pro(4-oxo)]GQLGLAGPK-OH) | – | – | 27.62 ± 6.51% |
| CC(C)C[C@H](NC(=O)CNC(=O)[C@H](CC(C)C)NC(=O)[C@H](CCC(N)=O)NC(=O)CNC(=O)[C@@H]1C[C@@H](F)CN1)C(=O)N[C@@H](C)C(=O)NCC(=O)N1CCC[C@H]1C(=O)N[C@@H](CCCCN)C(=O)O [YDE-039, (4-Fluoro)Pro-Gly-Gln-Leu-Gly-Leu-Ala-Gly-Pro-Lys] (H-[Pro(trans-4-F)]GQLGLAGPK-OH) | – | – | 29.94 ± 11.40% |
| CC(C)C[C@H](NC(=O)CNC(=O)[C@H](CC(C)C)NC(=O)[C@H](CCC(N)=O)NC(=O)CNC(=O)[C@@H]1CC(C)(C)CN1)C(=O)N[C@@H](C)C(=O)NCC(=O)N1CCC[C@H]1C(=O)N[C@@H](CCCCN)C(=O)O [YDE-040, (4-Dimethyl)Pro-Gly-Gln-Leu-Gly-Leu-Ala-Gly-Pro-Lys] (H-[Pro(4,4-Me2)]GQLGLAGPK-OH) | – | – | 18.33 ± 9.41% |
| CC(C)C[C@H](NC(=O)CNC(=O)[C@H](CC(C)C)NC(=O)[C@H](CCC(N)=O)NC(=O)CNC(=O)[C@@H]1C[C@@H](O)CN1)C(=O)O [YDE-042, HyP-Gly-Gln-Leu-Gly-Leu] (H-[Hyp]GQLGL-OH) | – | – | 20.72 ± 11.37% |
| CC(C)C[C@H](NC(=O)[C@H](CCC(N)=O)NC(=O)CNC(=O)[C@@H]1C[C@@H](O)CN1)C(=O)NCC(=O)O [YDE-043, HyP-Gly-Gln-Leu-Gly] (H-[Hyp]GQLG-OH) | – | – | 19.04 ± 7.36% |
| PGQLGLAGPK [YDE-037, Pro-Gly-Gln-Leu-Gly-Leu-Ala-Gly-Pro-Lys] | – | – | 36.30 ± 9.75% |
